{"source": "paper PMC7704689", "about": "(Bioorganic & medicinal chemistry letters, 2020)"}
{"tested_on": "Raji cells, a Burkitt's lymphoma (BL) cell line", "assay": "Viability of Raji cells", "assay_type": "cell-based, human", "conditions": "100 nM, 72 h"}
{"smiles": "COC(=O)[C@@]12OC[C@]34[C@H]([C@@H](O)[C@@H]1O)[C@@]1(C)CC(=O)C(OCC(=O)NCCN)=C(C)[C@@H]1C[C@H]3OC(=O)[C@H](OC(=O)C=C(C)C)[C@@H]24", "note": "[Compound 40]", "inhibition of viability of Raji cells": "moderate activity"}
{"smiles": "COC(=O)[C@@]12OC[C@]34[C@H]([C@@H](O)[C@@H]1O)[C@@]1(C)CC(=O)C(OC(=O)[C@@H]5CCCN5C(=O)OC(C)(C)C)=C(C)[C@@H]1C[C@H]3OC(=O)[C@H](OC(=O)C=C(C)C)[C@@H]24", "note": "[Compound 11]", "inhibition of viability of Raji cells": "moderate inhibition"}
{"smiles": "COC(=O)[C@@]12OC[C@]34[C@H]([C@@H](O)[C@@H]1O)[C@@]1(C)CC(=O)C(OC(=O)CNC(=O)OC(C)(C)C)=C(C)[C@@H]1C[C@H]3OC(=O)[C@H](OC(=O)C=C(C)C)[C@@H]24", "note": "[UPB-15]", "inhibition of viability of Raji cells": "moderate inhibition"}
{"smiles": "COC(=O)[C@@]12OC[C@]34[C@H]([C@@H](O)[C@@H]1O)[C@@]1(C)CC(=O)C(OC(=O)[C@H](C)NC(=O)OC(C)(C)C)=C(C)[C@@H]1C[C@H]3OC(=O)[C@H](OC(=O)C=C(C)C)[C@@H]24", "note": "[Compound 6]", "inhibition of viability of Raji cells": "moderate inhibition"}
{"smiles": "COC(=O)[C@@]12OC[C@]34[C@H]([C@@H](O)[C@@H]1O)[C@@]1(C)CC(=O)C(OC(=O)C[C@H](C)NS(C)(=O)=O)=C(C)[C@@H]1C[C@H]3OC(=O)[C@H](OC(=O)C=C(C)C)[C@@H]24", "note": "[Compound 29]", "inhibition of viability of Raji cells": "lost activities"}
{"smiles": "COC(=O)[C@@]12OC[C@]34[C@H]([C@@H](O)[C@@H]1O)[C@@]1(C)CC(=O)C(OC(=O)[C@@H]5CCCN5)=C(C)[C@@H]1C[C@H]3OC(=O)[C@H](OC(=O)C=C(C)C)[C@@H]24", "note": "[UPB-31]", "inhibition of viability of Raji cells": "potent activities comparable to or higher than the parent brusatol"}
{"smiles": "COC(=O)[C@@]12OC[C@]34[C@H]([C@@H](O)[C@@H]1O)[C@@]1(C)CC(=O)C(OC(=O)C[C@H](C)NC(=O)C[C@H](C)N)=C(C)[C@@H]1C[C@H]3OC(=O)[C@H](OC(=O)C=C(C)C)[C@@H]24", "note": "[Compound 21]", "inhibition of viability of Raji cells": "potent activities comparable to or higher than the parent brusatol"}
{"smiles": "COC(=O)[C@@]12OC[C@]34[C@H]([C@@H](O)[C@@H]1O)[C@@]1(C)CC(=O)C(OC(=O)CNC(=O)CN)=C(C)[C@@H]1C[C@H]3OC(=O)[C@H](OC(=O)C=C(C)C)[C@@H]24", "note": "[Compound 20]", "inhibition of viability of Raji cells": "potent activities comparable to or higher than the parent brusatol"}
{"smiles": "COC(=O)[C@@]12OC[C@]34[C@H]([C@@H](O)[C@@H]1O)[C@@]1(C)CC(=O)C(OC(=O)C[C@H](C)N)=C(C)[C@@H]1C[C@H]3OC(=O)[C@H](OC(=O)C=C(C)C)[C@@H]24", "note": "[UPB-26, 3-(3-β-HoAla)-brusatol]", "inhibition of viability of Raji cells": "potent activities comparable to or higher than the parent brusatol"}
{"smiles": "COC(=O)[C@@]12OC[C@]34[C@H]([C@@H](O)[C@@H]1O)[C@@]1(C)CC(=O)C(OC(=O)[C@H](C)NC(=O)[C@H](C)N)=C(C)[C@@H]1C[C@H]3OC(=O)[C@H](OC(=O)C=C(C)C)[C@@H]24", "note": "[Compound 22]", "inhibition of viability of Raji cells": "not active"}
{"smiles": "COC(=O)[C@@]12OC[C@]34[C@H]([C@@H](O)[C@@H]1O)[C@@]1(C)CC(=O)C(OC(=O)CNC(=O)CNC(=O)CN)=C(C)[C@@H]1C[C@H]3OC(=O)[C@H](OC(=O)C=C(C)C)[C@@H]24", "note": "[Compound 23]", "inhibition of viability of Raji cells": "potent activities comparable to or higher than the parent brusatol"}
{"tested_on": "NOD/SCID mice", "assay": "not given", "conditions": "mouse, in vivo"}
{"smiles": "COC(=O)[C@@]12OC[C@]34[C@H]([C@@H](O)[C@@H]1O)[C@@]1(C)CC(=O)C(OC(=O)C[C@H](C)N)=C(C)[C@@H]1C[C@H]3OC(=O)[C@H](OC(=O)C=C(C)C)[C@@H]24", "note": "[UPB-26, 3-(3-β-HoAla)-brusatol]", "mice survived (of 4 per group)": "four"}
{"tested_on": "MOLT-4, SU-DHL-6, SU-DHL-10, RPMI-8226 and LCL1 cells", "assay": "Activity on five other hematologic malignancy derived cell lines", "assay_type": "cell-based, human", "conditions": "MOLT-4, SU-DHL-6, SU-DHL-10, RPMI-8226, LCL1"}
{"smiles": "COC(=O)[C@@]12OC[C@]34[C@H]([C@@H](O)[C@@H]1O)[C@@]1(C)CC(=O)C(OCC(=O)NCCN)=C(C)[C@@H]1C[C@H]3OC(=O)[C@H](OC(=O)C=C(C)C)[C@@H]24", "note": "[Compound 40]", "activity on five other cell lines": "moderate to good activities"}
